Source: patent EP4711470A1, “METHOD AND KIT FOR EVALUATING ENZYME ACTIVITY” (The University of Tokyo, priority 2023, dated 2025)

Key:
[1] = system: NADH:quinone oxidoreductase; assay: Reactivity of Q-sHMRG with DT-diaphorase and increase in fluorescence; type: biochemical, microorganism; settings: 1 µM probe, HEPES buffer pH 7.4, 25°C
Procedure: Q-sHMRG prepared in Synthesis Example 1 was dissolved to give a final concentration of 1 µM in a HEPES buffer (100 mM, pH 7.4) containing CaCl2 (1 mM), MgCl2 (1 mM), DTT (dithiothreitol, 100 µM), and Triton X-100 (250 µM), and an absorption spectrum was measured. Then, NADH (100 µM) and NADH:quinone oxidoreductase (10 µg/mL, Toyobo, DAD-311) were added, and after incubation at 25°C for 4 hours, an absorption spectrum was measured again. Results are shown in (A) of FIG. 1.
Also, Q-sHMRG prepared in Synthesis Example 1 was dissolved to give a final concentration of 1 µM in a HEPES buffer (100 mM, pH 7.4) containing CaCl2 (1 mM), MgCl2 (1 mM), DTT (dithiothreitol, 100 µM), and Triton X-100 (250 µM), and then NADH at various concentrations and NADH:quinone oxidoreductase (10 µg/mL) were added. After incubation at 25°C for 30 minutes, fluorescence intensity was measured. Results are shown in (B) and (C) of FIG. 1.

lactate dehydrogenase = assay: Single-molecule coupled assay of lactate dehydrogenase oxidative activity in human plasma (microchamber array); type: biochemical; settings: for S/N ratio compared with SiRWST-3 or Q-dsAMC as fluorescent probe: same experiment, with SiRWST-3, 100 µM 1-MeO-PMS in place of NADH:quinone oxidoreductase
Procedure: To a HEPES buffer (100 mM, pH 7.4) containing CaCl2 (1 mM), MgCl2 (1 mM), DTT (dithiothreitol, 100 µM), and Triton X-100 (200 µM), Q-sHMRG (30 µM), Q-HMRG (30 µM) or resazurin (30 µM), lactate (1 mM), NAD^+ (oxidized nicotinamide adenine dinucleotide, 500 µM), and NADH:quinone oxidoreductase (50 µg/mL, Toyobo, DAD-311) were added. Then, plasma obtained from a healthy human subject was added to give a 3000-fold dilution (preparation step, Step (A)). 40 µL of the solution (a pre-encapsulation aqueous solution) thus prepared was introduced into a microchamber array Simoa (registered trademark) disk (Quanterix). Subsequently, 80 µL of Fluorinert (registered trademark) FC-70 (Sigma-Aldrich) as a hydrophobic solvent was introduced into the microchamber array to remove an aqueous solution not introduced into wells, and thereby W/O droplets were formed in wells. After incubation at room temperature for 3 hours (reaction step, Step (B)), fluorescence images were acquired by an epifluorescence microscope Ti2 (Nikon) equipped with a 20× objective lens (Plan Apo 20×), an sCMOS camera (ORCA-Fusion C14440, Hamamatsu Photonics), a white light unit (X-Cite Xylis, Opto Science), and a motorized stage (fluorescence measurement step, Step (C)).

[2] = Fluorescence characteristics of reduction products; settings: may be values measured in PBS at pH 7.4
Excerpt: These fluorescence characteristics may be values measured, for example, in phosphate-buffered saline (PBS) at pH 7.4.

Structure (SMILES)	fluorescence intensity increased by a reduction reaction by NADH:quinone oxidoreductase ([1]; NADH, NADH:quinone oxidoreductase 10 µg/mL (DAD-311))	lowest quantity of NADH that the combination of probe and NADH:quinone oxidoreductase can detect ([1]; NADH:quinone oxidoreductase 10 µg/mL, 30 minutes)	ratio (S/N ratio) of fluorescence intensity of a well encapsulating lactate dehydrogenase to a well not encapsulating it (lactate dehydrogenase; 30 µM probe, lactate 1 mM, NAD+ 500 µM, plasma 3000-fold dilution, 3 hours, compared among Q-sHMRG, Q-HMRG and resazurin)	S/N ratio compared with SiRWST-3 or Q-dsAMC as fluorescent probe (lactate dehydrogenase)	molar extinction coefficient ([2]; at maximum absorption wavelength)	fluorescence quantum yield [2]	mathematical product of molar extinction coefficient and fluorescence quantum yield [2]	maximum absorption wavelength [2]	maximum fluorescence wavelength [2]
CC1=C(C)C(=O)C(C(C)(C)CC(=O)Nc2ccc3c(c2)Oc2cc(N)ccc2C32OCc3ccc(S(=O)(=O)O)cc32)=C(C)C1=O (stereo not shown) [Q-sHMRG]	235 fold	0.01 µM	greater	larger					
O=c1ccc2[n+]([O-])c3ccc(O)cc3oc-2c1 [resazurin, reference compound]				larger					
N=c1ccc2c(-c3ccc(S(=O)(=O)O)cc3CO)c3ccc(N)cc3oc-2c1 [sHMRG, 3',6'-diamino-3H-spiro[isobenzofuran-1,9'-xanthene]-5/6-sulfonic acid]					80000 L/mol/cm	0.92	74000	498 nm	517 nm
